Experimental data as given in patent publication US12077503B2, “Substituted cyclic amides and their use as herbicides” (FMC CORPORATION, priority 2015, dated 2024).

How the values were obtained:
Format in all cases: in vivo
Kochia (Kochia scoparia) [1] = test: Test A preemergence
How it was run: (§1)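 In a loam soil and sand blend, planted seeds got a preemergence directed soil spray, and young plants at the one- to two-leaf stage, 2–10 cm high, got a postemergence application; ~10 d greenhouse hold; injury rated visually, 0 = none, 100 = complete control.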

[2] = tested on: barnyardgrass (Echinochloa crus-galli); test: Test A preemergence
How it was run: as §1

[3] = tested on: giant foxtail (Setaria faberii); test: Test A preemergence
How it was run: as §1

[4] = tested on: pigweed (Amaranthus retroflexus); test: Test A preemergence
[5] = tested on: ragweed (common ragweed, Ambrosia elatior); test: Test A preemergence
How it was run: as §1

[6] = tested on: ryegrass, Italian (Italian ryegrass, Lolium multiflorum); test: Test A preemergence
How it was run: as §1

[7] = tested on: Galium (catchweed bedstraw, Galium aparine); test: Test A postemergence; details: postemergence, 0 to 100 scale (0 no effect, 100 complete control)
How it was run: as §1

Kochia (Kochia scoparia) [8] = test: Test A postemergence; details: postemergence, 0 to 100 scale (0 no effect, 100 complete control)
How it was run: as §1

[9] = tested on: barnyardgrass (Echinochloa crus-galli); test: Test A postemergence; details: postemergence, 0 to 100 scale (0 no effect, 100 complete control)
How it was run: as §1

[10] = tested on: blackgrass (Alopecurus myosuroides); test: Test A postemergence; details: postemergence, 0 to 100 scale (0 no effect, 100 complete control)
How it was run: as §1

corn (Zea mays) = test: Test A postemergence; details: postemergence, 0 to 100 scale (0 no effect, 100 complete control)
How it was run: as §1

[11] = tested on: giant foxtail (Setaria faberii); test: Test A postemergence; details: postemergence, 0 to 100 scale (0 no effect, 100 complete control)
How it was run: as §1

[12] = tested on: pigweed (Amaranthus retroflexus); test: Test A postemergence; details: postemergence, 0 to 100 scale (0 no effect, 100 complete control)
How it was run: as §1

[13] = tested on: ragweed (common ragweed, Ambrosia elatior); test: Test A postemergence; details: postemergence, 0 to 100 scale (0 no effect, 100 complete control)
How it was run: as §1

[14] = tested on: ryegrass, Italian (Italian ryegrass, Lolium multiflorum); test: Test A postemergence; details: postemergence, 0 to 100 scale (0 no effect, 100 complete control)
How it was run: as §1

[15] = tested on: wheat (Triticum aestivum); test: Test A postemergence; details: postemergence, 0 to 100 scale (0 no effect, 100 complete control)
How it was run: as §1

[16] = tested on: barnyardgrass (Echinochloa crus-galli); test: Test B flooded paddy test; details: Flood, 0 to 100 scale where 0 is no effect and 100 is complete control, 13 to 15 d
How it was run: (§2)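 Flooding to 3 cm over soil accompanied treatment, which consisted of adding compound to the standing water around 2-leaf plants; depth was then maintained. Visual assessment versus controls followed at 13 to 15 d (scale 0–100, 0 meaning no effect).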

[17] = tested on: ducksalad (Heteranthera limosa); test: Test B flooded paddy test; details: Flood, 0 to 100 scale where 0 is no effect and 100 is complete control, 13 to 15 d
How it was run: as §2

rice (Oryra sativa) = test: Test B flooded paddy test; details: Flood, 0 to 100 scale where 0 is no effect and 100 is complete control, 13 to 15 d
How it was run: as §2

[18] = tested on: sedge, umbrella (small-flower umbrella sedge, Cyperus difformis); test: Test B flooded paddy test; details: Flood, 0 to 100 scale where 0 is no effect and 100 is complete control, 13 to 15 d
How it was run: as §2

[19] = 125 g ai/ha, Preemergence, visual injury after approximately 10 d, 0 to 100 scale where 0 is no effect and 100 is complete control
[20] = 500 g ai/ha, preemergence, 0 to 100 scale, 0 = no effect, 100 = complete control
[21] = 125 g ai/ha, visual rating after approx. 10 d
[22] = 500 g ai/ha, visual injury, approx. 10 d

Compound	Plant response rating, Kochia (Kochia (Kochia scoparia) [1]; [19])	Plant response rating, Kochia (Kochia (Kochia scoparia) [1]; [20])	Plant response rating, Barnyardgrass [2, 19]	Plant response rating, Barnyardgrass [2, 20]	Plant response rating, Foxtail, Giant [3, 19]	Plant response rating, Foxtail, Giant [3, 20]	Plant response rating, Pigweed [4, 19]	Plant response rating, Pigweed [4, 20]	Plant response rating, Ragweed [5, 19]	Plant response rating, Ragweed [5, 20]	Plant response rating, Ryegrass, Italian [6, 19]	Plant response rating, Ryegrass, Italian [6, 20]	Plant response rating, Galium [7, 21]	Plant response rating, Galium [7, 22]	Plant response rating, Kochia (Kochia (Kochia scoparia) [8]; [21])	Plant response rating, Kochia (Kochia (Kochia scoparia) [8]; [22])	Plant response rating, Barnyardgrass [9, 21]	Plant response rating, Barnyardgrass [9, 22]	Plant response rating, Blackgrass [10, 21]	Plant response rating, Blackgrass [10, 22]	other results
O=C1NCC(c2cccc(C(F)(F)F)c2)C1C(=O)Nc1ccc(Cl)cc1F (racemic) [Compound 675]	0	0	70	80	70	90	0	0	0	0	0	20	0	0	0	0	40	70	0	20	Plant response rating, Corn (corn (Zea mays); [21]): 0; Plant response rating, Corn (corn (Zea mays); [22]): 0; Plant response rating, Foxtail, Giant [11, 21]: 50; Plant response rating, Foxtail, Giant [11, 22]: 80; Plant response rating, Pigweed [12, 21]: 0; Plant response rating, Pigweed [12, 22]: 0; Plant response rating, Ragweed [13, 21]: 0; Plant response rating, Ragweed [13, 22]: 0; Plant response rating, Ryegrass, Italian [14, 21]: 0; Plant response rating, Ryegrass, Italian [14, 22]: 0; Plant response rating, Wheat [15, 21]: 0; Plant response rating, Wheat [15, 22]: 0; Plant response rating, Barnyardgrass ([16]; 500 g ai/ha): 60; Plant response rating, Ducksalad ([17]; 500 g ai/ha): 75; Plant response rating, Rice (rice (Oryra sativa); 500 g ai/ha): 15; Plant response rating, Sedge, Umbrella ([18]; 500 g ai/ha): 0
C#Cc1cccc(C2CNC(=O)C2C(=O)Nc2cccc(F)c2F)c1 (racemic) [Compound 677]	20	40	60	90	40	90	0	0	0	0	20	40	0	40	0	40	80	90	0	20	Plant response rating, Corn (corn (Zea mays); [21]): 0; Plant response rating, Corn (corn (Zea mays); [22]): 40; Plant response rating, Foxtail, Giant [11, 21]: 20; Plant response rating, Foxtail, Giant [11, 22]: 70; Plant response rating, Pigweed [12, 21]: 0; Plant response rating, Pigweed [12, 22]: 20; Plant response rating, Ragweed [13, 21]: 0; Plant response rating, Ragweed [13, 22]: 30; Plant response rating, Ryegrass, Italian [14, 21]: 0; Plant response rating, Ryegrass, Italian [14, 22]: 30; Plant response rating, Wheat [15, 21]: 0; Plant response rating, Wheat [15, 22]: 20; Plant response rating, Barnyardgrass ([16]; 250 g ai/ha): 30; Plant response rating, Ducksalad ([17]; 250 g ai/ha): 100; Plant response rating, Rice (rice (Oryra sativa); 250 g ai/ha): 0; Plant response rating, Sedge, Umbrella ([18]; 250 g ai/ha): 0
